From patent US20240336654A1, “ANTIMICROBIAL PEPTIDOMIMETICS” (SPEXIS AG, priority 2021, published 2024)
Where a SMILES comes first, the peptide text is derived from it. Bridges are numbered along the chain shown (N, C = ends). [ ]: non-standard residue; d: D form. Hyp = O=C(O)[C@@H]1C[C@@H](O)CN1; Cit = NC(=O)NCCC[C@H](N)C(=O)O; Pen = CC(C)(S)[C@H](N)C(=O)O; dDab = NCC[C@@H](N)C(=O)O; Orn = NCCC[C@H](N)C(=O)O; Dab = NCC[C@H](N)C(=O)O

Legend:
Type in all cases: cell-based
[1] = tested on: human red blood cells (hRBC); settings: red cells of human, 1 h, 200 μg/mL
Outline: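 Peptides at 200 μg/mL incubated 1 h at 37 °C with 20% (v/v) washed human RBC, shaking. Hemolysis from supernatant OD540, expressed as percent of 2.5% Triton X-100 lysis, with PBS as 0%.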

[2] = tested on: Klebsiella pneumoniae SSI3010; settings: SSI3010
Outline: (§1)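 MICs were determined by CLSI broth microdilution in cation-adjusted Mueller-Hinton II broth with about 5×10^5 CFU/mL inoculum. Peptides were tested in two-fold serial dilutions with 0.002% polysorbate 80 final. MIC in μg/mL is the lowest concentration with no visible growth after 18-20 h at 35 °C.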

[3] = tested on: Escherichia coli MCR-1 Af 45; settings: MCR-1 Af 45
Outline: as §1

[4] = tested on: Escherichia coli ATCC 25922; settings: ATCC 25922
Outline: as §1

Klebsiella pneumoniae SSI3010 MIC [2] [µg/mL]	Escherichia coli MCR-1 Af45 MIC [3] [µg/mL]	Escherichia coli ATCC 25922 MIC [4] [µg/mL]	Compound	Hemolysis at 0.2 g/L [1] [%]
0.5	0.25	0.25	CC[C@H](C)[C@H](NC(=O)[C@@H]1C[C@@H](O)CN1C(=O)[C@@H](N)C(C)C)C(=O)N[C@@H]1C(=O)N[C@@H](Cc2ccc(O)cc2)C(=O)N[C@@H](CO)C(=O)N[C@@H](CC(N)=O)C(=O)N[C@@H](CCCNC(=N)N)C(=O)N[C@@H](CCN)C(=O)N[C@@H]([C@@H](C)O)C(=O)N[C@H](CCN)C(=O)N[C@@H](CCCCN)C(=O)N[C@@H](CO)C(=O)N[C@@H](CCN)C(=O)N[C@H](C(=O)N[C@@H](Cc2ccc(O)cc2)C(=O)O)CSSC1(C)C [Example 47, Val-Hyp-Ile-Pen-Tyr-Ser-Asn-Arg-Dab-Thr-^DDab-Lys-Ser-Dab-Cys-Tyr] (H-V[Hyp]I[Pen]YSNR[Dab]T[dDab]KS[Dab]CY-OH; disulfide 4-15)	<1
0.5	0.25	0.25	CC[C@H](C)[C@H](NC(=O)[C@@H]1C[C@@H](O)CN1C(=O)[C@@H](N)C(C)C)C(=O)N[C@@H]1C(=O)N[C@@H](Cc2ccc(O)cc2)C(=O)N[C@@H](CCN)C(=O)N[C@@H](CC(N)=O)C(=O)N[C@@H](CCCNC(=N)N)C(=O)N[C@@H](CCN)C(=O)N[C@@H]([C@@H](C)O)C(=O)N[C@H](CCN)C(=O)N[C@@H](CCCCN)C(=O)N[C@@H](CO)C(=O)N[C@@H](CO)C(=O)N[C@H](C(=O)N[C@@H](Cc2ccc(O)cc2)C(=O)O)CSSC1(C)C [Example 48, Val-Hyp-Ile-Pen-Tyr-Dab-Asn-Arg-Dab-Thr-^DDab-Lys-Ser-Ser-Cys-Tyr] (H-V[Hyp]I[Pen]Y[Dab]NR[Dab]T[dDab]KSSCY-OH; disulfide 4-15)	<1
0.25	0.0625	0.125	CC[C@H](C)[C@H](NC(=O)[C@@H]1C[C@@H](O)CN1C(=O)[C@@H](N)C(C)C)C(=O)N[C@@H]1C(=O)N[C@@H](Cc2ccc(O)cc2)C(=O)N[C@@H](CO)C(=O)N[C@@H](CC(N)=O)C(=O)N[C@@H](CCCNC(=N)N)C(=O)N[C@@H](CCN)C(=O)N[C@@H]([C@@H](C)O)C(=O)N[C@H](CCN)C(=O)N[C@@H](CCCCN)C(=O)N[C@@H](CCCNC(=N)N)C(=O)N[C@@H](CCN)C(=O)N[C@H](C(=O)N[C@@H](Cc2ccc(O)cc2)C(=O)O)CSSC1(C)C [Example 54, Val-Hyp-Ile-Pen-Tyr-Ser-Asn-Arg-Dab-Thr-^DDab-Lys-Arg-Dab-Cys-Tyr] (H-V[Hyp]I[Pen]YSNR[Dab]T[dDab]KR[Dab]CY-OH; disulfide 4-15)	<1
0.5	0.25	0.25	CC[C@H](C)[C@H](NC(=O)[C@@H]1C[C@@H](O)CN1C(=O)[C@@H](N)C(C)C)C(=O)N[C@@H]1C(=O)N[C@@H](Cc2ccc(O)cc2)C(=O)N[C@@H](CO)C(=O)N[C@@H](CC(N)=O)C(=O)N[C@@H](CCCNC(=N)N)C(=O)N[C@@H](CCN)C(=O)N[C@@H]([C@@H](C)O)C(=O)N[C@H](CCN)C(=O)N[C@@H](CCCCN)C(=O)N[C@@H](CCCN)C(=O)N[C@@H](CO)C(=O)N[C@H](C(=O)N[C@@H](Cc2ccc(O)cc2)C(=O)O)CSSC1(C)C [Example 55, Val-Hyp-Ile-Pen-Tyr-Ser-Asn-Arg-Dab-Thr-^DDab-Lys-Orn-Ser-Cys-Tyr] (H-V[Hyp]I[Pen]YSNR[Dab]T[dDab]K[Orn]SCY-OH; disulfide 4-15)	<1
0.25	0.125	0.25	CC[C@H](C)[C@H](NC(=O)[C@@H]1C[C@@H](O)CN1C(=O)[C@@H](N)C(C)C)C(=O)N[C@@H]1C(=O)N[C@@H](Cc2ccc(O)cc2)C(=O)N[C@@H](CCN)C(=O)N[C@@H](CC(N)=O)C(=O)N[C@@H](CCCNC(=N)N)C(=O)N[C@@H](CCN)C(=O)N[C@@H]([C@@H](C)O)C(=O)N[C@H](CCN)C(=O)N[C@@H](CCCCN)C(=O)N[C@@H](CCN)C(=O)N[C@@H](CO)C(=O)N[C@H](C(=O)N[C@@H](Cc2ccc(O)cc2)C(=O)O)CSSC1(C)C [Example 56, Val-Hyp-Ile-Pen-Tyr-Dab-Asn-Arg-Dab-Thr-^DDab-Lys-Dab-Ser-Cys-Tyr] (H-V[Hyp]I[Pen]Y[Dab]NR[Dab]T[dDab]K[Dab]SCY-OH; disulfide 4-15)	<1
0.25	0.125	0.125	CC[C@H](C)[C@H](NC(=O)[C@@H]1C[C@@H](O)CN1C(=O)[C@@H](N)C(C)C)C(=O)N[C@@H]1C(=O)N[C@@H](Cc2ccc(O)cc2)C(=O)N[C@@H](CO)C(=O)N[C@@H](CC(N)=O)C(=O)N[C@@H](CCCNC(=N)N)C(=O)N[C@@H](CCN)C(=O)N[C@@H]([C@@H](C)O)C(=O)N[C@H](CCN)C(=O)N[C@@H](CCCCN)C(=O)N[C@@H](CCN)C(=O)N[C@H](CCN)C(=O)N[C@H](C(=O)N[C@@H](Cc2ccc(O)cc2)C(=O)O)CSSC1(C)C [Example 58, Val-Hyp-Ile-Pen-Tyr-Ser-Asn-Arg-Dab-Thr-^DDab-Lys-Dab-^DDab-Cys-Tyr] (H-V[Hyp]I[Pen]YSNR[Dab]T[dDab]K[Dab][dDab]CY-OH; disulfide 4-15)	<1

The remaining lines, values behind:

Compound	Klebsiella pneumoniae SSI3010 MIC [2] [µg/mL]	Escherichia coli MCR-1 Af45 MIC [3] [µg/mL]	Escherichia coli ATCC 25922 MIC [4] [µg/mL]	Hemolysis at 0.2 g/L [1] [%]
CC[C@H](C)[C@H](NC(=O)[C@@H]1C[C@@H](O)CN1C(=O)[C@@H](N)C(C)C)C(=O)N[C@@H]1C(=O)N[C@@H](Cc2ccc(O)cc2)C(=O)N[C@@H](CCN)C(=O)N[C@@H](CC(N)=O)C(=O)N[C@@H](CCCNC(=N)N)C(=O)N[C@@H](CCN)C(=O)N[C@@H]([C@@H](C)O)C(=O)N[C@H](CCN)C(=O)N[C@@H](CCCCN)C(=O)N[C@@H]([C@@H](C)O)C(=O)N[C@@H](CCCNC(N)=O)C(=O)N[C@H](C(=O)N[C@@H](Cc2ccc(O)cc2)C(=O)O)CSSC1(C)C [Example 49, Val-Hyp-Ile-Pen-Tyr-Dab-Asn-Arg-Dab-Thr-^DDab-Lys-Thr-Cit-Cys-Tyr] (H-V[Hyp]I[Pen]Y[Dab]NR[Dab]T[dDab]KT[Cit]CY-OH; disulfide 4-15)	0.5	0.25	0.25	<1
CC[C@H](C)[C@@H]1NC(=O)[C@H]([C@@H](C)O)NC(=O)[C@H](CCCCN)NC(=O)[C@@H](CCN)NC(=O)[C@H]([C@@H](C)O)NC(=O)[C@H](CCN)NC(=O)[C@H](CCCNC(=N)N)NC(=O)[C@H](CC(N)=O)NC(=O)[C@H](CCN)NC(=O)[C@H](Cc2ccc(O)cc2)NC(=O)[C@@H](NC(=O)[C@@H](NC(=O)[C@@H]2C[C@@H](O)CN2C(=O)[C@@H](N)C(C)C)[C@@H](C)CC)C(C)(C)SSC[C@@H](C(=O)N[C@@H](Cc2ccc(O)cc2)C(=O)O)NC1=O [Example 50, Val-Hyp-Ile-Pen-Tyr-Dab-Asn-Arg-Dab-Thr-^DDab-Lys-Thr-Ile-Cys-Tyr] (H-V[Hyp]I[Pen]Y[Dab]NR[Dab]T[dDab]KTICY-OH; disulfide 4-15)	1	0.5	0.5	<1
CC[C@H](C)[C@H](NC(=O)[C@@H]1C[C@@H](O)CN1C(=O)[C@@H](N)C(C)C)C(=O)N[C@@H]1C(=O)N[C@@H](Cc2ccc(O)cc2)C(=O)N[C@@H](CCN)C(=O)N[C@@H](CC(N)=O)C(=O)N[C@@H](CCCNC(=N)N)C(=O)N[C@@H](CCN)C(=O)N[C@@H]([C@@H](C)O)C(=O)N[C@H](CCN)C(=O)N[C@@H](CCCCN)C(=O)N[C@@H]([C@@H](C)O)C(=O)N[C@@H](CC(N)=O)C(=O)N[C@H](C(=O)N[C@@H](Cc2ccc(O)cc2)C(=O)O)CSSC1(C)C [Example 51, Val-Hyp-Ile-Pen-Tyr-Dab-Asn-Arg-Dab-Thr-^DDab-Lys-Thr-Asn-Cys-Tyr] (H-V[Hyp]I[Pen]Y[Dab]NR[Dab]T[dDab]KTNCY-OH; disulfide 4-15)	0.5	0.25	0.25	<1
CC[C@H](C)[C@H](NC(=O)[C@@H]1C[C@@H](O)CN1C(=O)[C@@H](N)C(C)C)C(=O)N[C@@H]1C(=O)N[C@@H](Cc2ccc(O)cc2)C(=O)N[C@@H](CCN)C(=O)N[C@@H](CC(N)=O)C(=O)N[C@@H](CCCNC(=N)N)C(=O)N[C@@H](CCN)C(=O)N[C@@H]([C@@H](C)O)C(=O)N[C@H](CCN)C(=O)N[C@@H](CCCCN)C(=O)N[C@@H]([C@@H](C)O)C(=O)N[C@@H](CO)C(=O)N[C@H](C(=O)N[C@@H](Cc2ccc(O)cc2)C(=O)O)CSSC1(C)C [Example 52, Val-Hyp-Ile-Pen-Tyr-Dab-Asn-Arg-Dab-Thr-^DDab-Lys-Thr-Ser-Cys-Tyr] (H-V[Hyp]I[Pen]Y[Dab]NR[Dab]T[dDab]KTSCY-OH; disulfide 4-15)	1	0.25	0.25	<1
CC[C@H](C)[C@H](NC(=O)[C@@H]1C[C@@H](O)CN1C(=O)[C@@H](N)C(C)C)C(=O)N[C@@H]1C(=O)N[C@@H](Cc2ccc(O)cc2)C(=O)N[C@@H](CO)C(=O)N[C@@H](CC(N)=O)C(=O)N[C@@H](CCCNC(=N)N)C(=O)N[C@@H](CCN)C(=O)N[C@@H]([C@@H](C)O)C(=O)N[C@H](CCN)C(=O)N[C@@H](CCCCN)C(=O)N[C@@H](CCCNC(N)=O)C(=O)N[C@@H](CCN)C(=O)N[C@H](C(=O)N[C@@H](Cc2ccc(O)cc2)C(=O)O)CSSC1(C)C [Example 53, Val-Hyp-Ile-Pen-Tyr-Ser-Asn-Arg-Dab-Thr-^DDab-Lys-Cit-Dab-Cys-Tyr] (H-V[Hyp]I[Pen]YSNR[Dab]T[dDab]K[Cit][Dab]CY-OH; disulfide 4-15)	1	0.25	0.25	<1
